What was measured:
Format in all cases: in vivo
Lolium perenne (LOLPE) [1] = test: Example B6: post application on weeds, LOLPE; conditions: 312 h, after 13 days, 100 = total damage, 0 = no damage, read-out: LOLPE damage to plant
Protocol: (§1) Lolium perenne (LOLPE), Alopecurus myosuroides (ALOMY), Echinochloa crus-galli (ECHCG) and Avena fatua (AVEFA). Activity Against Weeds Seeds of a variety of test species were sown in standard soil in pots. After cultivation for 8 days under controlled conditions in a glasshouse (at 24/16° C., day/night; 14 hours light; 65% humidity), the plants were sprayed with an aqueous spray solution derived from the formulation of the technical active ingredient in acetone/water (50:50) solution containing 0.5% Tween 20 (polyoxyethelyene sorbitan monolaurate, CAS RN 9005-64-5). The test plants were then grown in a glasshouse under controlled conditions in a glasshouse (at 24/16° C., day/night; 14 hours light; 65% humidity) and watered twice daily. After 13 days, the test was evaluated (100=total damage to plant; 0=no damage to plant).

Winter wheat (TRZAW) = test: Example B8: post application on wheat, with and without safener cloquintocet-mexyl; conditions: after 13 days, 100 = total damage, 0 = no damage
Protocol: Application with Safener (Cloquintocet-Mexyl) Winter wheat seeds with a seed treatment of cloquintocet-mexyl applied at a rate of 0.5 g/kg seeds were sown in standard soil in pots. After cultivation for 8 days under controlled conditions in a glasshouse (at 24/16° C., day/night; 14 hours light; 65% humidity), the plants were sprayed with an aqueous spray solution derived from the formulation of the technical active ingredient in acetone/water (50:50) solution containing 0.5% Tween 20 (polyoxyethelyene sorbitan monolaurate, CAS RN 9005-64-5). The test plants were then grown in a glasshouse under controlled conditions in a glasshouse (at 24/16° C., day/night; 14 hours light; 65% humidity) and watered twice daily. After 13 days, the test was evaluated (100=total damage to plant; 0=no damage to plant).

[2] = tested on: Echinochloa crus-galli (ECHCG); test: Example B6: post application on weeds, ECHCG; conditions: 312 h, after 13 days, 100 = total damage, 0 = no damage, read-out: ECHCG damage to plant
Protocol: as §1

[3] = tested on: Echinochloa crus-galli (ECHCG); test: Example B7: pre application on weeds, ECHCG; conditions: 312 h, pre-emergence spray one day after sowing, evaluated after 13 days, read-out: Pre application on weeds, ECHCG (100=total damage to plant; 0=no damage to plant)
Protocol: as §1, with “one day” for “8 days”

Lolium perenne (LOLPE) [4] = test: Example B7: pre application on weeds, LOLPE; conditions: 312 h, pre-emergence spray one day after sowing, evaluated after 13 days, read-out: Pre application on weeds, LOLPE (100=total damage to plant; 0=no damage to plant)
Protocol: as §1, with “one day” for “8 days”

[5] = tested on: Alopecurus myosuroides (ALOMY); test: Example B6: post application on weeds, ALOMY; conditions: 312 h, after 13 days, 100 = total damage, 0 = no damage, read-out: ALOMY damage to plant
Protocol: as §1

Avena fatua (AVEFA) [6] = test: Example B6: post application on weeds, AVEFA; conditions: 312 h, after 13 days, 100 = total damage, 0 = no damage, read-out: AVEFA damage to plant
Protocol: as §1

Avena fatua (AVEFA) [7] = test: Example B7: pre application on weeds, AVEFA; conditions: 312 h, pre-emergence spray one day after sowing, evaluated after 13 days, read-out: Pre application on weeds, AVEFA (100=total damage to plant; 0=no damage to plant)
Protocol: as §1, with “one day” for “8 days”

[8] = tested on: Alopecurus myosuroides (ALOMY); test: Example B7: pre application on weeds, ALOMY; conditions: 312 h, pre-emergence spray one day after sowing, evaluated after 13 days, read-out: Pre application on weeds, ALOMY (100=total damage to plant; 0=no damage to plant)
Protocol: as §1, with “one day” for “8 days”

[9] = 250 g/ha + 0.5 g/kg seeds cloquintocet-mexyl

Structure (SMILES) | pest or weed control at 250 g/ha (Lolium perenne (LOLPE) [1]) [%] | TRZAW damage to plant (Winter wheat (TRZAW); [9]) | TRZAW damage to plant (Winter wheat (TRZAW); 250 g/ha, without safener) | pest or weed control at 250 g/ha [2] [%] | pest or weed control at 250 g/ha [3] [%] | pest or weed control at 250 g/ha (Lolium perenne (LOLPE) [4]) [%] | pest or weed control at 250 g/ha [5] [%] | pest or weed control at 250 g/ha (Avena fatua (AVEFA) [6]) [%] | pest or weed control at 250 g/ha (Avena fatua (AVEFA) [7]) [%] | pest or weed control at 250 g/ha [8] [%]
CCOC(=O)Oc1c(-c2c(C)cc(C)cc2OC)c(=O)n2n1CCN(OC)CC2 [Compound P1.9] | 90 | 60 | 80 | 100 | 70 | 80 | 90 | 90 | 80 | 70
CCOC(=O)Oc1c(-c2c(C)cc(Br)cc2C)c(=O)n2n1CCN(OC)CC2 [Compound P1.10] | 70 | 30 | 60 | 60 | 60 | 70 | 80 | 70 | 40 | 70
CCOC(=O)Oc1c(-c2c(Cl)cc(C)cc2Br)c(=O)n2n1CCN(OC)CC2 [Compound P1.11] | 80 | 10 | 60 | 60 | 80 | 90 | 80 | 70 | 70 | 100
CCOC(=O)Oc1c(-c2c(C)cc(Cl)cc2Br)c(=O)n2n1CCN(OC)CC2 [Compound P1.12] | 70 | 30 | 60 | 50 | 0 | 100 | 80 | 70 | 10 | 90
CON1CCN2C(=O)C(c3c(C)cc(C)cc3C)C(=O)N2CC1 [Compound P2.1, 3-Methoxy-8-(2,4,6-trimethyl-phenyl)-tetrahydro-pyrazolo[1,2-a][1,2,5]triazepine-7,9-dione] | 90 | 30 | 60 | 100 | 100 | 100 | 90 | 90 | 90 | 100
CON1CCN2C(=O)C(c3c(C)cc(Cl)cc3C)C(=O)N2CC1 [Compound P2.2, 8-(4-Chloro-2,6-dimethyl-phenyl)-3-methoxy-tetrahydro-pyrazolo[1,2-a][1,2,5]triazepine-7,9-dione] | 70 | 20 | 30 | 60 | 70 | 80 | 70 | 50 | 50 | 80
C#Cc1cc(C)cc(C)c1C1C(=O)N2CCN(OC)CCN2C1=O [Compound P2.5] | 100 | 10 | 80 | 100 | 90 | 100 | 90 | 100 | 100 | 100
